Experiments:
MM cells [1] = assay: Anti-MM activity of reversine analog; assay type: cell-based; conditions: FIG. 14
Description: MTT cell survival assay. Viability of cells treated with reversine, alone or combined with other agents, was assessed by measuring 3-(4,5-dimethylthiazol-2-yl)-2,5-diphenyl tetrasodium bromide (MTT, Chemicon International, Temecula, Calif.) dye absorbance. Cells were pulsed with 1:10 the culture volume of 5 mg/ml MTT to each well for the last 4 hrs of 72 hr cultures, followed by 1.5-3 fold the culture volume of isopropanol containing 0.04N HCl. Absorbance was measured at 570/630 nm using a spectrophotometer (Molecular Devices Corp., Sunnyvale Calif.). Recombinant human IL-6 and IGF (R&D Systems; Minneapolis, Minn.) was used at 10 ng/mL and 50 ng/mL respectively, as indicated. For testing normal PBMCs, healthy donor blood was collected using heparinized tubes, separated by Ficoll (Amersham Biosciences; Sweden) gradient separation and plated at 150,000 cells per well and pre-stimulated, as indicated, with 5 ng/mL PHA (Sigma) for 24 hrs.

[2] = system: primary myeloma tumor specimens from heavily pre-treated patients
Description: (§1) MTT cell survival assay. Viability of cells treated with reversine, alone or combined with other agents, was assessed by measuring 3-(4,5-dimethylthiazol-2-yl)-2,5-diphenyl […] bromide (MTT, Chemicon International, Temecula, Calif.) dye absorbance. Cells were pulsed with 1:10 the culture volume of 5 mg/ml MTT to each well for the last 4 hrs of 72 hr cultures, followed by 1.5-3 fold the culture volume of isopropanol containing 0.04N HCl. Absorbance was measured at 570/630 nm using a spectrophotometer (Molecular Devices Corp., Sunnyvale Calif.). Recombinant human IL-6 and IGF (R&D Systems; Minneapolis, Minn.) was used at 10 ng/mL and 50 ng/mL respectively, as indicated. For testing normal PBMCs, healthy donor blood was collected using heparinized tubes, separated by Ficoll (Amersham Biosciences; Sweden) gradient separation and plated at 150,000 cells per well and pre-stimulated, as indicated, with 5 ng/mL PHA (Sigma) for 24 hrs.

[3] = system: peripheral blood mononuclear cells (PBMCs)
Description: as §1

MM cells [4] = conditions: combined with dexamethasone (5 nM)
Description: as §1

hepatocytes = conditions: 1 microM, in vitro
Description: as §1

stromal cells = conditions: 1 microM, in vitro
Description: as §1

MM.1S tumor cell line = system: MM.1S tumor cell line
Description: as §1

[5] = system: GFP-luc expressing MM.1S cells; conditions: 72 hrs, luciferase readout
Description: (§2) Activity against myeloma cells in co-culture with bone marrow stromal cells. Co-culture Stromal cells were plated at a density of 10,000 cells per well in optical 96-well plates and were incubated for 24 hrs to allow for attachment. Tumor cell lines stably expressing luciferase were plated at 1500 cells per well. Cells were treated immediately following plating and incubated for 72 hrs. Luciferin substrate was added to cultures, mixed, and incubated at room temperature. Samples were read using a Luminoskan luminometer (Labsystems, Ramsey, Minn.).

[6] = system: GFP-luc expressing MM.1R cells; conditions: 72 hrs, luciferase readout
Description: as §2

[7] = system: MM cells (MM.1S, OPM-1 human tumor cells); conditions: 1 microM reversine
From the text: Cell cycle analysis. Cell lines, treated with reversine for 0, 2, 4, 8,16, 24, and 48 hrs were stained using a solution of propidium iodide (Sigma) and RNase A following 70% EtOH fixation.

MM.1S cells = conditions: 1 microM reversine, 2-48 hr
Description: Immunoblotting analysis. Immunoblotting was performed by scrapping cells (1×10^6), centrifuged briefly and lysed for 30 min on ice in 50 mM Tris-HCl, pH 8.0, containing 120 mM NaCl and 1% Igepal, supplemented with the Complete-TM mixture of proteinase inhibitors. The samples were cleared by centrifugation (14,000 rpm, 30 min, 4° C.) and assessed for protein concentration. SDS-polyacrylamide gel electrophoresis (12%) was performed (30-50 μg of protein per lane) and the proteins were electroblotted onto PVDF membranes. After 1 hour incubation in blocking solution (5% milk in TBST), the membranes were exposed to primary antibody overnight at 4° C. Following washing in TBST, the respective secondary HRP-labeled antibody was added at 1:20,000 dilution for 1 hr at room temperature. The membrane was then washed with TBST for 45-60 min with multiple changes of the wash buffer. Following washing, the protein expression was visualized using the ECL technique. The primary antibodies used for immunoblotting were purchased from Santa Cruz Biotechnology (Santa Cruz, Calif.), Upstate Biotechnologies (Lake Placid, N.Y.) or Cell Signaling (Beverly, Mass.). Secondary antibodies were purchased from (Jackson ImmunoResearch West Grove, Pa.).

MM cell lines = conditions: reversine 1 μM, washout, then drug-free medium
Description: Cell death commitment assay. The minimum time length of exposure to reversine that is required to commit MM cells to apoptosis was evaluated by incubating cells in 24-well plates with reversine (1 μM) for 1, 2, 4, 8, 16 or 24 hours. At the end of this incubation, the cells were washed 3 times and incubated in drug-free medium for an additional 3 days, resulting in equal length of total incubation for all experimental conditions ([…]), at which point cell survival was quantified by MTT, as above, and expressed as percentage of the value obtained from respective controls.

chicken B-cell line DT40 = conditions: FIG. 13
[8] = system: tumor cell lines, including myeloma, leukemia, lymphoma and thyroid
From the text: Cell lines. ARD, ARH-77, ARK, ARO, ARP-1, BHT101, BHP-10-3, BHP-14-9, BHP-17-10, BHP-18-17, BHP-19-24, BHP2-7, BHP-5, BHP-7, DHL-4, DHL-6, DHL-7, DHL-8, DHL-10, Dox6, EJM, FRO, IM9, INA-6, JJN3, KAT-4, KAT-4B, KAT4C, KAT18, KMS-1, KMS-11, KMS-12BM, KMS-18, KMS-20, KMS-26, KMS-28-BM, KMS-28-PE, KMS-34, KMS-5, L363, LPCL-HO, LRS, MM-AS, MEG-01, MM144, MM-1R, MM-1S, MM1S-Akt, MMSV, Namalwa, NCI-H929, NOP2, NPA, OCI MY1, OCI-MY5, OCI-My7, OPM-1, OPM-2, OPM-6, RPMI8226, S6B45, SKMM2, SW579, SW1736, THLE-3, TK PCL, TT, U266, WM-WSU, WRO, XG1, and ZR-75-1 were grown in either Dulbecco's modified Eagle's medium (DMEM) (BioWhittaker, Walkersville, Md.) or Roswell Park Memorial Institute medium (RPMI) (BioWhittaker) with 100 U/ml penicillin, 100 μg/ml streptomycin and 10% fetal calf serum (FCS) (GIBCO/BRL, Gaithersburg, Md.), unless stated otherwise.
as §1

various phosphatases = conditions: 500 nM
Description: In vitro activity against phosphatases. In vitro phosphatase activity was screened at 500 nM reversine using the DiFMUP technology (Molecular Probes). Briefly, 6,8-difluoro-4-methylumbelliferyl phosphate substrate is combined with ATP and drug. The removal of the phosphate group on 6,8-difluoro-4-methylumbelliferyl yields a more fluorescent version of the substrate than the non-hydrolyzed form. The amount of fluorescent signal directly corresponds to the level of phosphatase activity.

OPM2 cells = conditions: oral gavage, 1 mg/kg twice weekly
From the text: Anti-myeloma activity in animals. […] Briefly, male (6 to 8-week old) SCID/Beige mice, housed and monitored in the Animal Research Facility of the Dana-Farber Cancer Institute, were irradiated (300 rads) using Cs^137 gamma-irradiator source, and received (24 hrs post-irradiation) tail i.v. injections of 10^6 OPM2 cells suspended in total volume of 200 microL of phosphate buffered saline (PBS) per mouse. Mice were monitored for changes in body weight and signs of infection or paralysis. In accordance with institutional guidelines, mice were sacrificed by CO2 inhalation in the event of paralysis or major compromise in their quality of life. All experimental procedures and protocols had been approved by the Animal Care and Use Committee of the Dana-Farber Cancer Institute. Overall survival (defined as time between i.v. injection of tumor cells and sacrifice or death) was compared in control vs. 1 mg/mg reversine-treated (P.O. twice weekly) mice by Kaplan-Meier method.

MR20 myeloma cells = conditions: 72 hours
Description: Treatment of reversine in the Side Populations of MR20 myeloma cells. MR20 cells were plated at a density of 1×10*5 cells/mL in RPMI media supplemented with Pen/Strep and 10% FBS. Reversine was added to the cells at a range of concentrations, the cells were then incubated for 72 hrs at 37 degrees C. Following the incubation period, the cells were collected and stained with Hoescht, and counter stained with 7-AAD. Reserpine, a inhibitor of the membrane transporter, was added to a sample of control cells to identify the “side population” cells (control). The samples were then analyzed on a BD FACS Aria with a UV laser to excite the Hoescht stain. The samples were first gated on the cellular fraction (by forward and side scatter), then on the viable cells (7-AAD negative), then on the Hoescht-Blue negative Hoescht-Red negative fraction representing the Side Population.

various kinases = conditions: 500 nM
Description: In vitro activity against kinases. Kinase activity was screened using 500 nM of reversine (in 1% DMSO) and ATP using the Invitrogen Z′-LYTE™ kinase assay platform (Invitrogen). In summary, in first reaction the kinase transfers the gamma-phosphate of ATP to a single tyrosine, serine or threonine residue in a synthetic FRET-peptide. In the secondary reaction, a site-specific protease recognizes and cleaves non-phosphorylated FRET-peptides. To calculate kinase activity, the ratio of donor emission to acceptor emission after excitation of the fluorophore at 400 nm was compared.

## c1nc2nc(NC3CCCCC3)nc(Nc3ccc(N4CCOCC4)cc3)c2[nH]1 [retreversine]
MM cells [1]
  anti-MM activity in comparison with reversine: reduced activity

## c1nc2nc(Nc3ccc(N4CCOCC4)cc3)nc(NC3CCCCC3)c2[nH]1 [reversine, 2-(4-morpholinoanilino)-6-cyclohexylaminopurine]
[2]
  dose with anti-MM activity: ≤ 1 µM
[3]; PHA-stimulated, in vitro
  toxicity to PBMCs stimulated with phytohaemagglutinin: limited toxicity
[3]; unstimulated, doses as high as 10 microM
  toxicity to PBMCs: does not cause major toxicity
MM cells [4]
  anti-MM activity of combination: greater than additive
hepatocytes
  toxicity to hepatocytes: minimal toxicity
Stromal cells
  toxicity to stromal cells: minimal toxicity
MM.1S tumor cell line; 10 μM reversine
  difference in normalized effect with versus without cytokines: virtually no difference
MM.1S tumor cell line; presence or absence of cytokines (IL-6, IGF)
  tumor cell viability: dose dependent decrease in tumor cell viability
[5]
  sensitivity in co-culture with bone marrow stromal cells: increased
[6]
  sensitivity in co-culture with bone marrow stromal cells: increased
[7]
  exposure time after which the sub-G0 fraction increases: more than 16 hr
  time of G2 arrest after initial exposure: 8 to 16 h
MM.1S cells
  B-raf and Akt levels: inhibition of B-raf and Akt levels
  apoptosis markers (caspase 3, PARP): cleavge of caspase 3 and PARP
  effect on chaperone proteins Hsp70 and Hsp90: minimal affects
MM.1S cells; no increase in total protein levels
  phospho-specific proteins (phospho-Akt, phospho-MEK, phospho-MAPK, phospho-IKB, phospho-p70S6K): increased levels
MM cell lines
  treatment time that commits cells to death: less than 24 hrs
Chicken B-cell line DT40
  sensitivity of syk-expressing versus syk-/- DT40 cells: more sensitive
[8]; in many cases
  concentration with significant anti-tumor activity: ≤ 1 µM
[8]; myeloma, leukemia, lymphoma and thyroid lines, FIG. 1
  anti-tumor effects in tumor cell lines: anti-tumor effects in a broad range of tumor cell lines
[8]; subset of MM cell lines
  anti-tumor effect, potency in words: sub-micro molar anti-tumor effect
[8]; wide variety of tumor cell lines, reversine between 1 and 10 μM, 72 hour exposure
  survival rate: 0%
Various phosphatases
  inhibition of phosphatase activity: inhibition of phosphatase activity was not seen
OPM2 cells
  survival compared to control mice: Survival was extended
MR20 myeloma cells
  sensitivity of side population (SP) cells versus main population: more sensitive than the main population
MR20 myeloma cells; increasing concentrations
  percentage of SP cells: decreased with increasing doses
Various kinases
  inhibition of kinase activity: inhibition of kinase activity was observed

— US8466147B2, “Use of reversine and analogs for treatment of cancer” (Dana-Farber Cancer Institute, Inc., priority 2006, dated 2013)
